Patent US10544130B2, “Metallo-beta-lactamase inhibitors” (priority 2015, dated 2020)

Tested on: Pseudomonas aeruginosa PAO1 MB9798 (efflux+, IMP-1)
Conditions: ratio MITC95 PA 9798/MITC95 PA 9799; imipenem at 2 μg/mL
From the text: The strain background was Pseudomonas aeruginosa PAO1.
The strain set was then used as a pair to determine the effect of metallo-β-lactamase inhibitors of Formula I on the MIC of imipenem and/or ceftazidime. A fixed concentration of antibiotic was included in standard microbroth MIC tests, usually at the CLSI (Clinical and Laboratory Standards Institute) breakpoint concentration. A fixed amount of a class A/C beta-lactamase inhibitor was also included to inhibit the resident Pseudomonas AmpC enzyme. A serial titration of the metallo-β-lactamase inhibitor was included and the concentration of metallo-β-lactamase inhibitor which restores susceptibility of the strain to the included antibiotic was recorded. That concentration of metallo-β-lactamase inhibitor was then compared between the two strains to determine the fold difference between the efflux + (MB9798) and efflux − (MB9799) strains. This was taken as an indication of the extent to which the MBLi is subject to efflux.

SMILES	Efflux ratio
CN([C@H]1CCNC1)S(=O)(=O)c1ccc(-c2cccc3sc(N)nc23)c(-c2nnn[nH]2)c1S(N)(=O)=O [Example 65, 4-(2-amino-1,3-benzothiazol-4-yl)-N1-methyl-N1-[(3S)-pyrrolidin-3-yl]-3-(1H-tetrazol-5-yl)benzene-1,2-disulfonamide]	2.00
Nc1nc2c(-c3ccc(S(=O)(=O)N4CCC[C@H](N)C4)c(S(N)(=O)=O)c3-c3nnn[nH]3)cccc2s1 [Example 66, 3-(2-amino-1,3-benzothiazol-4-yl)-6-{[(3S)-3-aminopiperidin-1-yl]sulfonyl}-2-(1H-tetrazol-5-yl)benzenesulfonamide]	2.00
Nc1nc2c(-c3ccc(S(=O)(=O)N[C@H]4CCCNC4)c(S(N)(=O)=O)c3-c3nnn[nH]3)cccc2s1 [Example 67, 4-(2-amino-1,3-benzothiazol-4-yl)-N1-[(3S)-piperidin-3-yl]-3-(1H-tetrazol-5-yl)benzene-1,2-disulfonamide]	1.00
Nc1nc2c(-c3ccc(S(=O)(=O)N4CCC[C@@H](N)C4)c(S(N)(=O)=O)c3-c3nnn[nH]3)cccc2s1 [Example 68, 3-(2-amino-1,3-benzothiazol-4-yl)-6-{[(3R)-3-aminopiperidin-1-yl]sulfonyl}-2-(1H-tetrazol-5-yl)benzenesulfonamide]	2.00
Nc1nc2c(-c3ccc(S(=O)(=O)N[C@@H]4CCCNC4)c(S(N)(=O)=O)c3-c3nnn[nH]3)cccc2s1 [Example 69, 4-(2-amino-1,3-benzothiazol-4-yl)-N1-[(3R)-piperidin-3-yl]-3-(1H-tetrazol-5-yl)benzene-1,2-disulfonamide]	0.50
NC[C@@H]1CCN(S(=O)(=O)c2ccc(-c3cccc4sc(N)nc34)c(-c3nnn[nH]3)c2S(N)(=O)=O)C1 [Example 70, 3-(2-amino-1,3-benzothiazol-4-yl)-6-{[(3S)-3-(aminomethyl)pyrrolidin-1-yl]sulfonyl}-2-(1H-tetrazol-5-yl)benzenesulfonamide]	1.00
Nc1nc2c(-c3ccc(S(=O)(=O)NC[C@H]4CCNC4)c(S(N)(=O)=O)c3-c3nnn[nH]3)cccc2s1 [Example 73, 4-(2-amino-1,3-benzothiazol-4-yl)-N^1-[(3S)-pyrrolidin-3-ylmethyl]-3-(1H-tetrazol-5-yl)benzene-1,2-disulfonamide]	0.50
NC[C@H]1CCN(S(=O)(=O)c2ccc(-c3cccc4sc(N)nc34)c(-c3nnn[nH]3)c2S(N)(=O)=O)C1 [Example 74, 3-(2-amino-1,3-benzothiazol-4-yl)-6-{[(3R)-3-(aminomethyl)pyrrolidin-l-yl]sulfonyl}-2-(1H-tetrazol-5-yl)benzenesulfonamide]	1.00
Nc1nc2c(-c3ccc(S(=O)(=O)NC[C@@H]4CCNC4)c(S(N)(=O)=O)c3-c3nnn[nH]3)cccc2s1 [Example 75, 4-(2-amino-1,3-benzothiazol-4-yl)-N^1-[(3R)-pyrrolidin-3-ylmethyl]-3-(1H-tetrazol-5-yl)benzene-1,2-disulfonamide]	1.00
CN1CC[C@@H](CNS(=O)(=O)c2ccc(-c3cccc4sc(N)nc34)c(-c3nnn[nH]3)c2S(N)(=O)=O)C1 [Example 76, 4-(2-amino-1,3-benzothiazol-4-yl)-N^1-{[(3R)-1-methylpyrrolidin-3-yl]methyl}-3-(1H-tetrazol-5-yl)benzene-1,2-disulfonamide]	0.50
CN1CC[C@H](CNS(=O)(=O)c2ccc(-c3cccc4sc(N)nc34)c(-c3nnn[nH]3)c2S(N)(=O)=O)C1 [Example 77, 4-(2-amino-1,3-benzothiazol-4-yl)-N1-{[(3S)-1-methylpyrrolidin-3-yl]methyl}-3-(1H-tetrazol-5-yl)benzene-1,2-disulfonamide]	0.50
Nc1nc2c(-c3ccc(S(=O)(=O)N[C@H]4CN[C@H](CO)C4)c(S(N)(=O)=O)c3-c3nnn[nH]3)cccc2s1 [Example 78, 4-(2-amino-1,3-benzothiazol-4-yl)-N1-[(3R,5S)-5-(hydroxymethyl)pyrrolidin-3-yl]-3-(1H-tetrazol-5-yl)benzene-1,2-disulfonamide]	0.50
Nc1nc2c(-c3ccc(S(=O)(=O)N[C@@H]4CN[C@@H](CO)C4)c(S(N)(=O)=O)c3-c3nnn[nH]3)cccc2s1 [Example 79, 4-(2-amino-1,3-benzothiazol-4-yl)-N1-[(3S,5R)-5-(hydroxymethyl)pyrrolidin-3-yl]-3-(1H-tetrazol-5-yl)benzene-1,2-disulfonamide]	0.50
Nc1nc2c(-c3ccc(S(=O)(=O)N[C@@H]4CN[C@H](CO)C4)c(S(N)(=O)=O)c3-c3nnn[nH]3)cccc2s1 [Example 80, 4-(2-amino-1,3-benzothiazol-4-yl)-N1-[(3S,5S)-5-(hydroxymethyl)pyrrolidin-3-yl]-3-(1H-tetrazol-5-yl)benzene-1,2-disulfonamide]	1.00
Nc1nc2c(-c3ccc(S(=O)(=O)N[C@H]4CN[C@@H](CO)C4)c(S(N)(=O)=O)c3-c3nnn[nH]3)cccc2s1 [Example 81, 4-(2-amino-1,3-benzothiazol-4-yl)-N1-[(3R,5R)-5-(hydroxymethyl)pyrrolidin-3-yl]-3-(1H-tetrazol-5-yl)benzene-1,2-disulfonamide]	0.50
Nc1nc2c(-c3ccc(S(=O)(=O)N[C@H]4CN[C@@H](C(=O)O)C4)c(S(N)(=O)=O)c3-c3nnn[nH]3)cccc2s1 [Example 82, (4R)-4-({[4-(2-amino-1,3-benzothiazol-4-yl)-2-sulfamoyl-3-(1H-tetrazol-5-yl)phenyl]sulfonyl}amino)-D-proline]	0.50
Nc1nc2c(-c3ccc(S(=O)(=O)NC4(CO)CCNC4)c(S(N)(=O)=O)c3-c3nnn[nH]3)cccc2s1 (stereo not drawn) [Example 83, 4-(2-amino-1,3-benzothiazol-4-yl)-N1-[3-(hydroxymethyl)pyrrolidin-3-yl]-3-(1H-tetrazol-5-yl)benzene-1,2-disulfonamide]	0.50
Nc1nc2c(-c3ccc(S(=O)(=O)NC4(CO)CCNC4)c(S(N)(=O)=O)c3-c3nnn[nH]3)cccc2s1 (stereo not drawn) [Example 84, 4-(2-amino-1,3-benzothiazol-4-yl)-N1-[3-(hydroxymethyl)pyrrolidin-3-yl]-3-(1H-tetrazol-5-yl)benzene-1,2-disulfonamide]	1.00
COCCNCCNS(=O)(=O)c1ccc(-c2cccc3sc(N)nc23)c(-c2nnn[nH]2)c1S(N)(=O)=O [Example 85, 4-(2-aminobenzo[d]thiazol-4-yl)-N1-(2-((2-methoxyethyl)amino)ethyl)-3-(1H-tetrazol-5-yl)benzene-1,2-disulfonamide]	1.00
Nc1nc2c(-c3ccc(S(=O)(=O)NCC4(O)CCNCC4)c(S(N)(=O)=O)c3-c3nnn[nH]3)cccc2s1 [Example 86, 4-(2-aminobenzo[d]thiazol-4-yl)-N^1-((4-hydroxypiperidin-4-yl)methyl)-3-(1H-tetrazol-5-yl)benzene-1,2-disulfonamide]	0.50
CC(C)(N)CNS(=O)(=O)c1ccc(-c2cccc3sc(N)nc23)c(-c2nnn[nH]2)c1S(N)(=O)=O [Example 87, N^1-(2-amino-2-methylpropyl)-4-(2-aminobenzo[d]thiazol-4-yl)-3-(1H-tetrazol-5-yl)benzene-1,2-disulfonamide]	0.50
Nc1nc2c(-c3ccc(S(=O)(=O)NC4CC5CNC4C5)c(S(N)(=O)=O)c3-c3nnn[nH]3)cccc2s1 (stereo not drawn) [Example 88, 4-(2-aminobenzo[d]thiazol-4-yl)-N^1-(2-azabicyclo[2.2.1]heptan-6-yl)-3-(1H-tetrazol-5-yl)benzene-1,2-disulfonamide]	0.50
Nc1nc2c(-c3ccc(S(=O)(=O)NC4CC5CNC4C5)c(S(N)(=O)=O)c3-c3nnn[nH]3)cccc2s1 (stereo not drawn) [Example 89, 4-(2-aminobenzo[d]thiazol-4-yl)-N^1-(2-azabicyclo[2.2.1]heptan-6-yl)-3-(1H-tetrazol-5-yl)benzene-1,2-disulfonamide]	1.00
NCCCNS(=O)(=O)c1ccc(-c2cccc3sc(N)nc23)c(-c2nnn[nH]2)c1S(N)(=O)=O.O=C(O)C(F)(F)F [Example 90, 3-(4-(2-aminobenzo[d]thiazol-4-yl)-2-sulfamoyl-3-(1H-tetrazol-5-yl)phenylsulfonamido) propan-1-aminium 2,2,2-trifluoroacetate]	0.50
Nc1nc2c(-c3ccc(S(=O)(=O)NCC4(F)CNC4)c(S(N)(=O)=O)c3-c3nnn[nH]3)cccc2s1.O=CO [Example 91, 3-(((4-(2-aminobenzo[d]thiazol-4-yl)-2-sulfamoyl-3-(1H-tetrazol-5-yl)phenyl)sulfonamido)methyl)-3-fluoroazetidin-1-ium formate]	1.00
CNCCCN(C)S(=O)(=O)c1ccc(-c2cccc3sc(N)nc23)c(-c2nnn[nH]2)c1S(N)(=O)=O.O=C(O)C(F)(F)F [Example 93, 3-(4-(2-aminobenzo[d]thiazol-4-yl)-N-methyl-2-sulfamoyl-3-(1H-tetrazol-5-yl)phenylsulfonamido)-N-methylpropan-1-aminium 2,2,2-trifluoroacetate]	1.00
NC[C@@H]1CCN(S(=O)(=O)c2ccc(-c3cccc4sc(N)nc34)c(-c3nnn[nH]3)c2S(N)(=O)=O)C1.O=C(O)C(F)(F)F [Example 94, (S)-(1-((4-(2-aminobenzo[d]thiazol-4-yl)-2-sulfamoyl-3-(1H-tetrazol-5-yl)phenyl)sulfonyl)pyrrolidin-3-yl)methanaminium 2,2,2-trifluoroacetate]	1.00
